These results are taken from ChEMBL document CHEMBL1201862, “PubChem BioAssay data set” (2004).

Assay type in all cases: functional
For experiment [1], the target named is T1, Caspase-3 (Homo sapiens, UniProt P42574).
T1 sequence (P42574 whole entry): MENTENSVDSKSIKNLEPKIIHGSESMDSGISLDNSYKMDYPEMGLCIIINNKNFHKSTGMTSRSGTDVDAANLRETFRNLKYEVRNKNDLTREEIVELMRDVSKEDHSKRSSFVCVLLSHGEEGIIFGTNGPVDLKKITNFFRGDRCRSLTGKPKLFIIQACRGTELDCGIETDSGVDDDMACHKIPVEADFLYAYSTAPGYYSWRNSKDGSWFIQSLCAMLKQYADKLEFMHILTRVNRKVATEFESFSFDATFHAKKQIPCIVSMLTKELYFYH

Experiment [2] deals with T2, Sentrin-specific protease 7 (Homo sapiens, UniProt Q9BQF6).
T2 sequence (Q9BQF6 whole entry): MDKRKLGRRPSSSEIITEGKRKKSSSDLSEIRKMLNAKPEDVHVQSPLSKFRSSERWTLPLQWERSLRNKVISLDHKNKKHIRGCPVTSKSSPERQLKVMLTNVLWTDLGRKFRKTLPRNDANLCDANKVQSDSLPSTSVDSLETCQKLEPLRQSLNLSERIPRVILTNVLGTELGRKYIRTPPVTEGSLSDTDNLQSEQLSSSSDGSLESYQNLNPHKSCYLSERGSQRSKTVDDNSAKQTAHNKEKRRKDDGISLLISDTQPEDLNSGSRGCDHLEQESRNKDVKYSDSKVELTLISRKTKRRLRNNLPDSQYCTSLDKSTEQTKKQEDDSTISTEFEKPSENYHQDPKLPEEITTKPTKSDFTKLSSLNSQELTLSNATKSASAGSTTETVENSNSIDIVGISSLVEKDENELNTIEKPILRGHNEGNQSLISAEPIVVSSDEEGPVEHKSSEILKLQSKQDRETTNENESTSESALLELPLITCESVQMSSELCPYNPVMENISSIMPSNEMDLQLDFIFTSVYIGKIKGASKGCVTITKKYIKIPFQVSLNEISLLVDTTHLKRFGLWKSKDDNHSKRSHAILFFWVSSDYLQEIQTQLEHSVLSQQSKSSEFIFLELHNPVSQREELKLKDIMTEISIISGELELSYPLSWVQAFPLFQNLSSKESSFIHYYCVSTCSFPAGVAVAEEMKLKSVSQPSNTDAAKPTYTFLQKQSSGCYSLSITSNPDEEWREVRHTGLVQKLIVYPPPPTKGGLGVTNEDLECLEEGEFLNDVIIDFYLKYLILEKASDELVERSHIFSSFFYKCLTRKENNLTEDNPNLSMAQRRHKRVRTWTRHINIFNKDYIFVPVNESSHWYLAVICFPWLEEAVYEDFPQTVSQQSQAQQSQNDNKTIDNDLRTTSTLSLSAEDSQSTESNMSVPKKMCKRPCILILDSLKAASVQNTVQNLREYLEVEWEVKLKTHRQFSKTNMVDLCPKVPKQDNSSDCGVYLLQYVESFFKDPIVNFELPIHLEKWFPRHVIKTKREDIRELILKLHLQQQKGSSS

The target in experiment [3] is T3, Sentrin-specific protease 6 (Homo sapiens, UniProt Q9GZR1).
T3 sequence (Q9GZR1 whole entry): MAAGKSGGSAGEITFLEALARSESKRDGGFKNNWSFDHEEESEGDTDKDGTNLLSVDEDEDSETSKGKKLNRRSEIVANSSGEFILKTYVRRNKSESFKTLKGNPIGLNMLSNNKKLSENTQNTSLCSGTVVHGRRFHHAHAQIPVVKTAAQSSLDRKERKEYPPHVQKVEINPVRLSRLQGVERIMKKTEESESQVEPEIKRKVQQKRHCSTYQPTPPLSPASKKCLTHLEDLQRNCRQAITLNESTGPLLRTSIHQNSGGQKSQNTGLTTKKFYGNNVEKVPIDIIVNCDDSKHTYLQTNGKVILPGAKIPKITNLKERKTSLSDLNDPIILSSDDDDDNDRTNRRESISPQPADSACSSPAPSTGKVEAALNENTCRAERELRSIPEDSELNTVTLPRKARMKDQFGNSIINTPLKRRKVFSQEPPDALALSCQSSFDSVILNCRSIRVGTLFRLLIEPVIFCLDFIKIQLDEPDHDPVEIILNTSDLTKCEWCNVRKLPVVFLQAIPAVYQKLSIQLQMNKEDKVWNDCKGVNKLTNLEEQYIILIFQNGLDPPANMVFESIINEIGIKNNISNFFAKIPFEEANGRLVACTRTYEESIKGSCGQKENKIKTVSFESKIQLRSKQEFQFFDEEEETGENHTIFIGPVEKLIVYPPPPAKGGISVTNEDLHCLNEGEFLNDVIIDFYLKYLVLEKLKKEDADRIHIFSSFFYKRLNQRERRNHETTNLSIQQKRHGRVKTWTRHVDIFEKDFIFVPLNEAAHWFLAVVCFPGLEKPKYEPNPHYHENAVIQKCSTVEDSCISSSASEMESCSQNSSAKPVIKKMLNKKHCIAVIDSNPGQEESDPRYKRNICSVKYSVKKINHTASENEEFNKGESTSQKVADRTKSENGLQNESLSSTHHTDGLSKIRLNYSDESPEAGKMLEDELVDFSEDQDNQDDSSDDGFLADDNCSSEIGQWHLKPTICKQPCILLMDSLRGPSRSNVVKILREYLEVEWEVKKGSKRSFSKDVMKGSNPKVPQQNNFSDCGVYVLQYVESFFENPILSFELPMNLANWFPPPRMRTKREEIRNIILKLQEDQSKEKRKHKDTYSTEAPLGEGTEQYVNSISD

Experiment [4] has as its target T4, Sentrin-specific protease 8 (Homo sapiens, UniProt Q96LD8).
T4 sequence (Q96LD8 whole entry): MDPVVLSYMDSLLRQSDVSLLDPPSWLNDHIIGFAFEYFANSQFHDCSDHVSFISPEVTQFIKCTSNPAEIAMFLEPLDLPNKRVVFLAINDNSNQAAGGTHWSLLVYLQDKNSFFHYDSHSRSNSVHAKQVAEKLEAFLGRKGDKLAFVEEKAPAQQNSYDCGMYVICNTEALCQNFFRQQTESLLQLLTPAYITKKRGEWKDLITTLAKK

The target of experiment [5] is Eukaryotic translation initiation factor 4E (Mus musculus, UniProt P63073). The experiment in a line: blockers of eIF4G binding by eIF4E – biochemical, TR-FRET, dose response (AID 855).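 Also: potency for disrupting eIF4E binding to eIF4GI seen as loss of FRET.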
Eukaryotic translation initiation factor 4E, sequence (P63073 whole entry): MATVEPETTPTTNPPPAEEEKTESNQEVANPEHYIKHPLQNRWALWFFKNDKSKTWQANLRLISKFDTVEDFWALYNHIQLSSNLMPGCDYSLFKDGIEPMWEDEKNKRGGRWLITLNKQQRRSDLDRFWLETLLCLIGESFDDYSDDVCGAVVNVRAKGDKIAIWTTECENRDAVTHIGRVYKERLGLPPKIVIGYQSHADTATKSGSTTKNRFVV
A further experiment addresses T5, Hexokinase-1 (Homo sapiens, UniProt P19367).
T5 sequence (P19367 whole entry): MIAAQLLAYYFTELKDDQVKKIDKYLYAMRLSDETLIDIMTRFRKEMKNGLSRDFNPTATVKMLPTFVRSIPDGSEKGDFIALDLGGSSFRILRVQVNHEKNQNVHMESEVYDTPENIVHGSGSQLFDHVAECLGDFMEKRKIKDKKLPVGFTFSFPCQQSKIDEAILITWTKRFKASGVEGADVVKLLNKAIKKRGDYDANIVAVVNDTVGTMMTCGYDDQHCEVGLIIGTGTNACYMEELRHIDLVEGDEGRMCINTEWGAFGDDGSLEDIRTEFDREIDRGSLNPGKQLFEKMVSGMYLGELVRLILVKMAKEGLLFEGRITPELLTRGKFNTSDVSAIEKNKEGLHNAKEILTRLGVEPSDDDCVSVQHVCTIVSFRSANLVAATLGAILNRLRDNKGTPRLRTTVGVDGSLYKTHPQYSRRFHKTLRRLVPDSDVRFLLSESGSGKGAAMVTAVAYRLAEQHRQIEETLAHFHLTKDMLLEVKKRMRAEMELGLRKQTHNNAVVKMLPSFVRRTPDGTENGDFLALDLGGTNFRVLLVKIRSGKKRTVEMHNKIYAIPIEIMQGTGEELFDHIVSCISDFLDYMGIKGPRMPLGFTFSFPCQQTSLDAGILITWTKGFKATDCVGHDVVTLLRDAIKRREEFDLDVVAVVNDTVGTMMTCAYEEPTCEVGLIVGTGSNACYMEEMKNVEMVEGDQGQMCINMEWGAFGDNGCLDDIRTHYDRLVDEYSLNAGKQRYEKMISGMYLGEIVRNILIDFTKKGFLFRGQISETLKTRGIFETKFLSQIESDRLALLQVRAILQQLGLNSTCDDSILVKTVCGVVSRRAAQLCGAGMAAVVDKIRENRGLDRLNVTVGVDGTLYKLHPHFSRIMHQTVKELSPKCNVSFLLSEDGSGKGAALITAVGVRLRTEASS
Briefly: SAR analysis of small molecule inhibitors of hexokinase domain containing I (HKDC1) in the hexokinase 1 selectivity assay. [Related pubchem assays (depositor defined):AID493160, AID493190].

A further experiment has as its target T6, Hexokinase HKDC1 (Homo sapiens, UniProt Q2TB90).
T6 sequence (Q2TB90 whole entry): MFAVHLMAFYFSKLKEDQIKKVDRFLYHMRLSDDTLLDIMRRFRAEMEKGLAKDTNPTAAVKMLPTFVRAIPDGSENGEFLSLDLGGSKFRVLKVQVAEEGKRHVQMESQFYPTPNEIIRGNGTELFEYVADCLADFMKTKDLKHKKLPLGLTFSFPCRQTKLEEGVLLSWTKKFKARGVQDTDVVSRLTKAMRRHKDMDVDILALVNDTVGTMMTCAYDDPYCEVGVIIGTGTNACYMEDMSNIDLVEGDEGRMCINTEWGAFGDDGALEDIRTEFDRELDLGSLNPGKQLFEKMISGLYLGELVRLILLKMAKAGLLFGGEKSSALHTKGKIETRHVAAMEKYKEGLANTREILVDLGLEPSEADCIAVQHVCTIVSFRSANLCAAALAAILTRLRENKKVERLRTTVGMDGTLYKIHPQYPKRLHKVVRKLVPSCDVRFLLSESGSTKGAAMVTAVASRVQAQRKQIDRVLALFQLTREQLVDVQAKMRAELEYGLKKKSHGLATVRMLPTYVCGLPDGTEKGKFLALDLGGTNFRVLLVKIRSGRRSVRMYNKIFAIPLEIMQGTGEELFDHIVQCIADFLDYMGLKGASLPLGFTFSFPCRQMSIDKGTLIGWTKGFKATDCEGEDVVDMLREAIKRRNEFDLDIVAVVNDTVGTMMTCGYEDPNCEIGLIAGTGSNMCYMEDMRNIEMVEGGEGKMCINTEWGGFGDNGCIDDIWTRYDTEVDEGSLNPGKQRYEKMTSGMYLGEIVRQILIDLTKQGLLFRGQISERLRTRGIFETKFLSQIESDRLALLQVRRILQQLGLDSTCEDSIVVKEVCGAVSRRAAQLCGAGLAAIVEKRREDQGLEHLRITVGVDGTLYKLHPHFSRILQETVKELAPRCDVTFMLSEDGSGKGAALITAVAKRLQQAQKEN
The experiment in a line: SAR analysis of small molecule inhibitors of hexokinase domain containing I (HKDC1). [Related pubchem assays (depositor defined):AID493160, AID493190].

Experiment [6] has as its target T4, Sentrin-specific protease 8. Briefly: inhibition of human SENP8 cleavage activity – biochemical, luminescence, SAR follow-up (AID 504501).
For experiment [7], the target named is T1, Caspase-3. The experiment in a line: SAR Analysis of small molecule inhibitors of Sentrin-specific proteases (SENPs) using a Caspase-3 Selectivity assay. [Related pubchem assays (depositor defined):AID2540, AID2599, AID434973, AID489001].
For experiment [8], the target named is T3, Sentrin-specific protease 6. The experiment in a line: SAR Analysis of small molecule inhibitors of Sentrin-specific protease 6 (SENP6) using a Luminescent assay. [Related pubchem assays (depositor defined):AID2582, AID2599].
Experiment [9] concerns the target T2, Sentrin-specific protease 7. Briefly: inhibition of human SENP7 cleavage activity – biochemical, luminescence, SAR follow-up (AID 504497).

Active and inactive are the calls of the source. Rule as the data show it, for most assays here: actives have a measured IC50 and inactives only a lower limit.

Consider `Clc1ccc2oc(-c3ccccc3)nc2c1`, for which the half-inhibitory concentration (IC50) on Caspase-3 [1] is 14.2 µM (active); in [2], 7.93 µM (active); in experiment [3] it was 22 µM (active); in experiment [4], > 100 µM (inactive).

For `O=C(Nc1nnc(SCc2ccc(F)cc2)s1)c1ccc2ncsc2c1`, the IC50 in [5] was 26.2 µM (active); on Hexokinase-1, > 80 µM (inactive); on Hexokinase HKDC1, 12 µM (active).

Consider `O=C(O)CSc1cc(NS(=O)(=O)c2ccccc2)c2ccccc2c1O`, for which the IC50 at Hexokinase-1 was > 80 µM (inactive); on Hexokinase HKDC1, 4.84 µM (active).

In the case of `Cc1nc(C)c(C(=O)Nc2cccc(C(=O)Nc3cccc(C(F)(F)F)c3)c2)s1`, the IC50 at Hexokinase-1 and on Hexokinase HKDC1 was > 80 µM (inactive) throughout.

For the molecule `O=C(O)c1ccc(OC2CSC2)cc1`, the IC50 was 94.9 µM (active) at Caspase-3 [1]; > 100 µM (inactive) in [2]; 13 µM (active) in experiment [3]; 8.43 µM (active) in experiment [4]; 30 µM (active) in experiment [6]; > 99 µM (inactive) at Caspase-3 [7]. The half-maximal inhibitory concentration (IC50) was 18.7 µM (active) in [8] and > 99 µM (inactive) in experiment [9].
